The results in this text go back to patent publication US4980349A, “Sulphonamides derived from diarylmethanes, the processes for preparing them and pharmaceutical compositions containing them” (SANOFI, priority 1986, dated 1990).

Assay [1] concerns biosynthesis of leukotrienes B4 (LTB4), human polymorphonuclear leukocytes. The assay is described as follows: Biosynthesis of LTB4, isomers and oxidized metabolites in human polymorphonuclear leukocytes. In kind it is cell-based. Conditions: Leukocyte, second experiment, read-out: Percentage inhibition of LTB4 formation. On the procedure: Polymorphonuclear leukocytes are isolated from human blood and used during the 6 hours following the withdrawal. The viability of the cells is checked by trypan blue exclusion.
5×10^6 cells are incubated for 10 minutes at 37° C. in the presence of the test product dissolved in DMSO, and are stimulated with ionophore A 23187 (Galbiochem, 10 μM) in PBS buffer at pH 7.4, Ca^2+ and Mg^2+ =1 μM.
100 ng of prostaglandin B2 (PGB2), dissolved in methanol, are added at the end of the reaction to act as an internal standard.
On centrifugation, the culture supernatant is withdrawn. The latter is retrieved under argon and stored at -80° C. until analysed by HPLC.
This analysis is carried out by injecting 250 μl onto a 5 μm ODS ultrasphere column (Beckmann), with a gradient of acetonitrile (20-80%) in water, at pH 7.4.
The amounts of the different products which absorb at 269 nm, i.e. leukotrienes B4 (LTB4), isomers of LTB4 and oxidized metabolites of LTB4, are estimated by comparison with the internal standard.
The test product is used at a concentration of 40 μM.
They are expressed either as a percentage inhibition, or as a percentage increase in the production of LTB4, isomers of LTB4 and oxidized metabolites of LTB4 (designated by +).
The experimental model is the same as that described in Section 2.1. Other products are tested by comparison with the compound of the invention no. 1574, used as a control.

Assay [2] concerns rat hind foot kaolin-induced arthritis. The assay can be described thus: Kaolin-induced arthritis test, second experiment, acute phase (volume of the foot at the 8th hour). Conditions: po, 8 h, Table IXa; for change in vivo at 25 mg/kg / change in vivo at 50 mg/kg / change in vivo at 100 mg/kg: 8th hour, read-out: percentage significant decrease in the volume of the treated foot; for ED50: foot volume, read-out: 50% active dose. In kind it is in vivo. On the procedure:
(§1) The […] of 0.05 ml of a sterile 10% strength suspension of kaolin into the metatarsal flexor sheath of the hind foot of a rat initially induces an oedematous reaction. An inflammatory arthritis then forms.
(§2) The early oedematous reaction appears from the first hour, and reaches its maximum between the fourth hour and the sixth hour. This is the manifestation of interest. The assessment of the volume of the foot enables the action of substances on the oedematous reaction to be studied. The measurements are carried out using a Giono and Chevilard plethysmometer.
(§3) The test products are administered orally (stomach tube) one hour before the injection of the kaolin.
(§4) In a second experiment, a more elaborate study was performed in order to ascertain the effect of the products, on the one hand on the acute phase of the inflammatory reaction (measured by the volume of the foot at the 8th hour), and on the other hand on the chronic phase (activity measured by the weight of the foot at the 12th hour).
As in the previous experiment, ketoprofen was used as the comparative product:
The results are expressed as a percentage significant decrease in the volume of the treated foot compared with the controls.

The test system of assay [3] is rat hind foot carragheenin-induced oedema. The assay can be described thus: Carragheenin-induced oedema test. In kind it is in vivo. Conditions: 3 h, read-out: percentage inhibition of the inflammation; for change in vivo at 25 mg/kg: 25 mg/kg oral; for change in vivo at 50 mg/kg: 50 mg/kg oral; for change in vivo at 100 mg/kg: 100 mg/kg oral. How it is done:
In this test, 10 rats are used per test compound of the invention. Control batches of 10 rats also receive either the comparative compound (ketoprofen) or exclusively an NaCl solution.
The compounds of the invention are administered orally (stomach tube) one hour before the injection of carragheenin.
The carragheenin is suspended at a concentration of 1% in a 0.9% isotonic sodium chloride solution. The volume injected into the rat's foot is 0.20 ml.
The volume of the foot is measured before the injection and 3 hours later. The antagonistic effect of the products towards carragheenin is reflected in the inhibition of the volume of the oedema compared with control rats. The latter receive only isotonic NaCl solution under identical conditions.

Assay [4] has as its system foreign-body (sponge) granuloma in rats. The assay can be described thus: Experimental granuloma induced by foreign body, weight of the granulomas. It counts as in vivo, Wistar rats. Conditions: Rattus norvegicus, po, 240 h, 10 days after implantation, Table XIb, read-out: decrease in the weight of the granulomas. On the procedure:
(§5) This test consists in studying the subacute cellular phase which is developed in the 8 days which follow the implantation of a foreign body, a sponge of non-resorbable plastic, in the dorsal subcutaneous connective tissue in rats.
(§6) The animals used are Wistar rats weighing 120-140 g and of the same origin, maintained under the same conditions of housing throughout the treatment (8 days).
(§7) The compounds of the invention are administered orally, in a gum suspension, in the morning in a fasted state, using an oesophageal tube.
(§8) In this experiment, on the one hand a histological study of the granulomas is performed by sampling on day 8 (results recorded in Table XIa), and on the other hand a study of the weight of the granulomas was performed 10 days after the implantation (results recorded in Table XIb).

The subject of assay [5] is pain threshold of brewer's yeast inflamed rat hind foot. The assay is described as follows: Randall and Sellitto's test (analgesic activity). It counts as in vivo. How it is done: Inflammation increases the sensitivity to pain, in particular to pressure, and analgesics raise the threshold of the sensitivity.
The inflammation is obtained by injecting 0.1 ml of a 20% strength aqueous suspension of brewer's yeast under the plantar aponeurosis of one of the hind feet. […] The pain threshold is assessed in terms of the force necessary and sufficient to initiate a characteristic reaction of withdrawing the foot.
The sensitivity to pain of the inflamed foot reaches a plateau 4 hours after the injection of the brewer's yeast, and then remains stable until the 6th hour. The pain threshold of the inflamed foot in control rats weighing 140 g is reached for pressures of 50 to 60 g, whereas it is around 160 g for the intact foot.
The action of the substance administered orally to series of 10 rats is expressed in terms of the percentage increase in the mean pain threshold, compared with that measured in the rats of a control series of 10 animals which have not received a compound of the invention.
The test products are administered orally (stomach tube) one hour before the injection of brewer's yeast.
The comparative compound used is ketoprofen.

Assay [6] has as its system rat hind foot kaolin-induced arthritis. The assay can be described thus: Kaolin-induced arthritis test, second experiment, chronic phase (weight of the foot at the 12th hour). It counts as in vivo. Conditions: po, 12 h, Table IXb; for change in vivo at 25 mg/kg / change in vivo at 50 mg/kg / change in vivo at 100 mg/kg: 12th hour, read-out: percentage significant decrease in the weight of the treated foot; for ED50: foot weight, read-out: 50% active dose. On the procedure:
as §1, §3, §4
As in the previous experiment, ketoprofen was used as the comparative product: […]

In assay [7] the test system is foreign-body (sponge) granuloma in rats. The assay is described as follows: Experimental granuloma induced by foreign body, histological study. It counts as in vivo, Wistar rats. Conditions: for histological study of the granuloma (inflammatory connective / granulation tissue): second experiment, day 8, Table XIa. How it is done: as §5
The granulomas formed are removed 8 days after the implantation; a histological study is carried out after fixing the tissue and staining sections with hematein/ eosin. The observation is more especially concerned with the cell population of the primary phase of the formation of the granulation tissue: the reticulohistocytic cells, lymphocytes and more especially the macrophages.
as §6, §7
After 8 days of treatment, the rats are sacrificed by decapitation and the granulomas removed and prepared for the purpose of histological examination.
The experiment conditions are as follows:
The animals are distributed in batches of 10;
Each test product is administered at 2 doses, of 50 and 100 mg, respectively, to 2 batches of 10 animals;
Ketoprofen is used by way of reference product at the same 2 doses and under the same conditions; and
A batch of 10 control animals receives no treatment.
as §8

Assay [8] relates to rat hind foot kaolin-induced oedema. The assay can be described thus: Kaolin-induced arthritis test, first experiment (decrease in inflammation, foot volume). In kind it is in vivo. Conditions: 1 h before kaolin, Table IX, read-out: percentage decrease in the inflammation. How it is done:
as §1, §2, §3
The results are expressed as a percentage decrease in the inflammation in the treated animals compared with a control series of animals.
The batches are of 10 animals per dose and 10 control animals.
The figures shown represent the mean of 10 animals.

Where [9] appears, read: 25 mg/kg oral, second experiment, Table XIIa, read-out: percentage increase in the mean pain threshold.
Where [10] appears, read: 50 mg/kg oral, second experiment, Table XIIa, read-out: percentage increase in the mean pain threshold.
Where [11] appears, read: 100 mg/kg oral, second experiment, Table XIIa, read-out: percentage increase in the mean pain threshold.

Read-outs that look alike come from different tables or passages of the source.

A word on the inhibition: it is the drop in the measured response relative to a control, in per cent. As for `O=C(O)CCCCCCCCCCCNS(=O)(=O)c1ccc(Cl)cc1C(=O)c1ccccc1Cl` [Compound 1755], the inhibition at 40 µM in assay [1] was found to be 100%. The change in vivo at 25 mg/kg in assay [2] is -48 ± 5%; in assay [3] (second experiment, Table Xa), -45%; in assay [4], -45%; in assay [5] (setting [9]), 40%; in assay [6], -45%. In addition, the change in vivo at 50 mg/kg in assay [2] was -50 ± 5%; in assay [3] (second experiment, Table Xa) it was -52%; in assay [4] it was -50%; in assay [5] (setting [10]), 50%; in assay [6], -55%. Moreover, the change in vivo at 100 mg/kg is -55 ± 5% in assay [2]; -55% in assay [3] (second experiment, Table Xa); -55% in assay [4]; 55% in assay [5] (setting [11]); -58% in assay [6]. The ED50 in assay [2] and in assay [6] was 25 mg/kg throughout. In addition, the “histological study of the granuloma (inflammatory connective / granulation tissue)” value in assay [7] is “Granuloma poorly developed”.
For the compound `O=C(O)CCCCCCCCCCNS(=O)(=O)c1ccc(Cl)c(C(=O)c2ccc(Cl)cc2)c1` [Compound 1761], the inhibition at 40 µM in assay [1] came out at 100%. Besides, the change in vivo at 25 mg/kg in assay [2] was -38 ± 5%; in assay [3] (second experiment, Table Xa), -30%; in assay [4], -25%; in assay [5] (setting [9]) it was 40%; in assay [6], -40 ± 5%. In addition, the change in vivo at 50 mg/kg in assay [2] was -45 ± 5%; in assay [3] (second experiment, Table Xa), -35%; in assay [4] it was -30%; in assay [5] (setting [10]), 45%; in assay [6], -45 ± 5%. The change in vivo at 100 mg/kg was -50 ± 5% in assay [2]; -45% in assay [3] (second experiment, Table Xa); -45% in assay [4]; 50% in assay [5] (setting [11]); -50 ± 5% in assay [6]. Besides, the ED50 in assay [2] and in assay [6] was 100 mg/kg throughout. In addition, in assay [7], the “histological study of the granuloma (inflammatory connective / granulation tissue)” value is given as “Diminished production of inflammatory granulation”.
`CC(C(=O)O)c1cccc(C(=O)c2ccccc2)c1` (stereo not drawn) [Ketoprofen, ketoprofen, reference compound]: the change in vivo at 25 mg/kg in assay [3] (po, first experiment, Table X) was -25%; in assay [8] (25 mg/kg oral), -30%; in assay [5] (po, read-out: percentage increase in the mean pain threshold, 25 mg/kg oral, first experiment, Table XII) it was 22%; in assay [5] (po, read-out: percentage increase in the mean pain threshold, 25 mg/kg oral, second experiment, Table XIIa), 50%. Further, the change in vivo at 50 mg/kg in assay [3] (po, first experiment, Table X) is -45%; in assay [8] (50 mg/kg oral), -51%; in assay [5] (po, read-out: percentage increase in the mean pain threshold, 50 mg/kg oral, first experiment, Table XII) it was 55%; in assay [5] (po, read-out: percentage increase in the mean pain threshold, 50 mg/kg oral, second experiment, Table XIIa) it was 55%. Also, the change in vivo at 100 mg/kg in assay [3] (po, first experiment, Table X) was -65%; in assay [8] (100 mg/kg oral), -73%; in assay [5] (po, read-out: percentage increase in the mean pain threshold, 100 mg/kg oral, first experiment, Table XII), 78%; in assay [5] (po, read-out: percentage increase in the mean pain threshold, 100 mg/kg oral, second experiment, Table XIIa), 58%. In assay [7] (both doses (50 and 100 mg/kg) oral, 8 days, Table XI), the “histological study of the granuloma” value is reported as “very substantial decrease”.
